Assay results taken from patent publication US9371265B2, “Compositions and methods related to inhibitors of JAK kinase” (EP PHARMA, INC., priority 2012, dated 2016).

Experiments:
[1] = Stability in mouse plasma (LC-MS/MS); assay type: in vitro ADME; conditions: indicated concentrations and incubation time points
Procedure: FIG. 11 illustrates the dose-dependent effect of (FIG. 11A) freshly prepared EP-009(P) and (FIG. 11B) EP-009(P) stored in aqueous conditions for 48 hr at room temperature on IL-2/JAK3-dependent Kit225 cell viability. FIG. 12 illustrates LC-MS/MS detection of EP-009 (5 ng/ml) in mouse plasma at a retention time of 1.91 min.

[2] = biological target: ABL1(E255K)-phosphorylated (Homo sapiens, UniProt P00519, E255K); experiment: Kinase panel: ABL1(E255K)-phosphorylated; assay type: biochemical; conditions: 10 μM EP009
Procedure: (§1) Achieving JAK3 selectivity remains a significant challenge in the development of new small molecules for the treatment of cancer and immune-derived diseases. As such, the inventors employed cell-based screening assays of small-molecule libraries based upon the chemical scaffold of the established JAK3 inhibitor NC1153 (Stepkowski et al., J Immunol. (2005), 175(7):4236-4246) EP009 (FIG. 2A) was selected as a lead compound due to improved intrinsic stability (>95% purity in various solvents at 37° C. for 24 hours; FIG. 3) and high-degree of JAK3 selectivity. To test JAK3 versus JAK2 specificity of EP009, the IL-2/JAK3-dependent Kit225, and IL-3/JAK2-dependent BaF/3 cell lines were used. Kit225 and BaF/3 cells growing in the presence of IL-2 or IL-3, respectively, were treated with ascending concentrations of EP009 for 12 hours and cellular JAK3 and JAK2 tyrosine phosphorylation levels detected by Western blot analysis (FIGS. 2B and 2C). Following densitometric analysis, EP009 was determined to dose-dependently reduce IL-2-mediated JAK3 tyrosine phosphorylation with a cellular 50% inhibitory concentration (IC50) between 10 and 20 μM (FIG. 2B). […] To globally evaluate specificity, the inhibitory activity of EP009 was measured against a panel of protein kinases distributed throughout the kinome using the scanEDGE profiling service (KINOMEscan). […]

AURKA = AURKA (Homo sapiens, UniProt O14965); experiment: Kinase panel: AURKA; assay type: biochemical; conditions: 10 μM EP009
Procedure: as §1

DYRK1B = DYRK1B (Homo sapiens, UniProt Q9Y463); experiment: Kinase panel: DYRK1B; assay type: biochemical; conditions: 10 μM EP009
Procedure: as §1

ERBB2 = ERBB2 (Homo sapiens, UniProt P04626); experiment: Kinase panel: ERBB2; assay type: biochemical; conditions: 10 μM EP009
Procedure: as §1

FGFR2 = FGFR2 (Homo sapiens, UniProt P21802); experiment: Kinase panel: FGFR2; assay type: biochemical; conditions: 10 μM EP009
Procedure: as §1

IGF1R = IGF1R (Homo sapiens, UniProt P08069); experiment: Kinase panel: IGF1R; assay type: biochemical; conditions: 10 μM EP009
Procedure: as §1

JNK2 = JNK2 (Homo sapiens, UniProt P45984); experiment: Kinase panel: JNK2; assay type: biochemical; conditions: 10 μM EP009
Procedure: as §1

MEK1 = MEK1 (Homo sapiens, UniProt Q02750); experiment: Kinase panel: MEK1; assay type: biochemical; conditions: 10 μM EP009
Procedure: as §1

MKNK1 = MKNK1 (Homo sapiens, UniProt Q9BUB5); experiment: Kinase panel: MKNK1; assay type: biochemical; conditions: 10 μM EP009
Procedure: as §1

MLK1 = MLK1 (Homo sapiens, UniProt P80192); experiment: Kinase panel: MLK1; assay type: biochemical; conditions: 10 μM EP009
Procedure: as §1

PAK2 = PAK2 (Homo sapiens, UniProt Q13177); experiment: Kinase panel: PAK2; assay type: biochemical; conditions: 10 μM EP009
Procedure: as §1

PIK3C2B = PIK3C2B (Homo sapiens, UniProt O00750); experiment: Kinase panel: PIK3C2B; assay type: biochemical; conditions: 10 μM EP009
Procedure: as §1

PLK4 = PLK4 (Homo sapiens, UniProt O00444); experiment: Kinase panel: PLK4; assay type: biochemical; conditions: 10 μM EP009
Procedure: as §1

SNARK = SNARK (Homo sapiens, UniProt Q9H093); experiment: Kinase panel: SNARK; assay type: biochemical; conditions: 10 μM EP009
Procedure: as §1

TIE2 = TIE2 (Homo sapiens, UniProt Q02763); experiment: Kinase panel: TIE2; assay type: biochemical; conditions: 10 μM EP009
Procedure: as §1

Chain of PLK4 (O00444 whole entry): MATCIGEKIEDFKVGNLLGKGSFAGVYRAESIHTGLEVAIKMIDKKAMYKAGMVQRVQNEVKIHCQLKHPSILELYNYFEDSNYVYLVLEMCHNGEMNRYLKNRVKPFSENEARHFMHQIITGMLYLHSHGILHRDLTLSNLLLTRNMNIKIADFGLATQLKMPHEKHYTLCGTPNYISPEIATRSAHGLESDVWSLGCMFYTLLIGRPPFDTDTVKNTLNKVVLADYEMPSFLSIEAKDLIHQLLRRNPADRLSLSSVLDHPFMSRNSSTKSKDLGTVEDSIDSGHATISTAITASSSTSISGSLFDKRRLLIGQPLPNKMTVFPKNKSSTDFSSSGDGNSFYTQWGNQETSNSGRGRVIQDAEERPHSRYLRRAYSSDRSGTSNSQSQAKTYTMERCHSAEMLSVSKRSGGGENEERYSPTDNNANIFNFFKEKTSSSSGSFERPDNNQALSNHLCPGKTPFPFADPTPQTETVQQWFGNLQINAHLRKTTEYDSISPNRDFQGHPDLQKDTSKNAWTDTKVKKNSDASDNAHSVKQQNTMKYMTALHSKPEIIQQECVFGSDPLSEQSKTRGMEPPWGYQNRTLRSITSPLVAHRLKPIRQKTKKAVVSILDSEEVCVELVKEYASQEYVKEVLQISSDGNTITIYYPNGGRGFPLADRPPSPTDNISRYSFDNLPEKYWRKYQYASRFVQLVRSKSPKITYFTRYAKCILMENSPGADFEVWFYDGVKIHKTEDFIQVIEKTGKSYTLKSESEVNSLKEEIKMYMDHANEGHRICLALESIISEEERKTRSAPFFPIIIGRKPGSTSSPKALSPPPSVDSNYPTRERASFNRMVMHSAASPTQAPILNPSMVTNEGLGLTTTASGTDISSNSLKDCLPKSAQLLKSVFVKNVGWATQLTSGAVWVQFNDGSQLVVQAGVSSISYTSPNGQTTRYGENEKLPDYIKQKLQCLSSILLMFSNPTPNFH
Chain of AURKA (O14965 whole entry): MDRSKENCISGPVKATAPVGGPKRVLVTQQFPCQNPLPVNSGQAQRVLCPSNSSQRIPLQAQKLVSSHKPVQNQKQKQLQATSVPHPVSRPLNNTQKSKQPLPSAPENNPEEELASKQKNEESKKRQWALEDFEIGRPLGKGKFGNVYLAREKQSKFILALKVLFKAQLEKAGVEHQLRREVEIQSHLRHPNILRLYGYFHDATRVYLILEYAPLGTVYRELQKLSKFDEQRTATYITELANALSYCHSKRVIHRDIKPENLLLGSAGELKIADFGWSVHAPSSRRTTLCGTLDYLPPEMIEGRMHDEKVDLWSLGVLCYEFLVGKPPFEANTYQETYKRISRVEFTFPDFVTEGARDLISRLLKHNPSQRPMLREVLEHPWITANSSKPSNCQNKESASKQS
Chain of IGF1R (P08069 31-1367): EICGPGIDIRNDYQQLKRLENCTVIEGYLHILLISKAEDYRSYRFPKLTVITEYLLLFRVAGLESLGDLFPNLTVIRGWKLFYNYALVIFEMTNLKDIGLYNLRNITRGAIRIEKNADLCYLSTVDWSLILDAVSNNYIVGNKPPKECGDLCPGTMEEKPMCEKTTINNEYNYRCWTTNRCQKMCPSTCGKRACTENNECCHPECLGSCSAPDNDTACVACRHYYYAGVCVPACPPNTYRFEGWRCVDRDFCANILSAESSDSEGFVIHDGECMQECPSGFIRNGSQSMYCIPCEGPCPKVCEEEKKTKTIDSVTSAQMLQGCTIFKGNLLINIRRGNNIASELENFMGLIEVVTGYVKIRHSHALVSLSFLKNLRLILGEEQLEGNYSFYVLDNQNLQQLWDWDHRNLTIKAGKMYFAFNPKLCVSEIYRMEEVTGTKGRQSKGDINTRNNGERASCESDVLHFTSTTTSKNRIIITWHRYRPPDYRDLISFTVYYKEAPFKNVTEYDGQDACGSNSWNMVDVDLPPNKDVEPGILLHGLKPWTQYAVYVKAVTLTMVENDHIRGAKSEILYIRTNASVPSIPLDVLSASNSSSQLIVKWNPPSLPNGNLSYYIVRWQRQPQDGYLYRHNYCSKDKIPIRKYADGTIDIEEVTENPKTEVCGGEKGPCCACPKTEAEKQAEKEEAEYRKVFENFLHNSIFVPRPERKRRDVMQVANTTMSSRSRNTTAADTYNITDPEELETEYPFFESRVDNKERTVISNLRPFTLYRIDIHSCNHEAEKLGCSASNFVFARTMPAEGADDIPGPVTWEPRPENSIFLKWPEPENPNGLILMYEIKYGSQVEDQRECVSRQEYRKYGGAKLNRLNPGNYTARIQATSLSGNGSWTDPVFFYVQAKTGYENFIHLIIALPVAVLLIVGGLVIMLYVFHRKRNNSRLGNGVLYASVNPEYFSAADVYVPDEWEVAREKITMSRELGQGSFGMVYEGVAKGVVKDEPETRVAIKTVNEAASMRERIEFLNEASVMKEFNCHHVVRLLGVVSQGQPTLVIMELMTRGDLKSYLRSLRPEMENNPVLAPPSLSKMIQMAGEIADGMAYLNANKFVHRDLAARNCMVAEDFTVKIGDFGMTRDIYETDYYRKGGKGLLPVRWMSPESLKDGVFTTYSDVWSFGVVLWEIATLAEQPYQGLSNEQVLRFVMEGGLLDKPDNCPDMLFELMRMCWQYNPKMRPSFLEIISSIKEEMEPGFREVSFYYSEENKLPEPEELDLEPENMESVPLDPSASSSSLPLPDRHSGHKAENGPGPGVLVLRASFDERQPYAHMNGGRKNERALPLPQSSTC
Chain of TIE2 (Q02763 23-1124): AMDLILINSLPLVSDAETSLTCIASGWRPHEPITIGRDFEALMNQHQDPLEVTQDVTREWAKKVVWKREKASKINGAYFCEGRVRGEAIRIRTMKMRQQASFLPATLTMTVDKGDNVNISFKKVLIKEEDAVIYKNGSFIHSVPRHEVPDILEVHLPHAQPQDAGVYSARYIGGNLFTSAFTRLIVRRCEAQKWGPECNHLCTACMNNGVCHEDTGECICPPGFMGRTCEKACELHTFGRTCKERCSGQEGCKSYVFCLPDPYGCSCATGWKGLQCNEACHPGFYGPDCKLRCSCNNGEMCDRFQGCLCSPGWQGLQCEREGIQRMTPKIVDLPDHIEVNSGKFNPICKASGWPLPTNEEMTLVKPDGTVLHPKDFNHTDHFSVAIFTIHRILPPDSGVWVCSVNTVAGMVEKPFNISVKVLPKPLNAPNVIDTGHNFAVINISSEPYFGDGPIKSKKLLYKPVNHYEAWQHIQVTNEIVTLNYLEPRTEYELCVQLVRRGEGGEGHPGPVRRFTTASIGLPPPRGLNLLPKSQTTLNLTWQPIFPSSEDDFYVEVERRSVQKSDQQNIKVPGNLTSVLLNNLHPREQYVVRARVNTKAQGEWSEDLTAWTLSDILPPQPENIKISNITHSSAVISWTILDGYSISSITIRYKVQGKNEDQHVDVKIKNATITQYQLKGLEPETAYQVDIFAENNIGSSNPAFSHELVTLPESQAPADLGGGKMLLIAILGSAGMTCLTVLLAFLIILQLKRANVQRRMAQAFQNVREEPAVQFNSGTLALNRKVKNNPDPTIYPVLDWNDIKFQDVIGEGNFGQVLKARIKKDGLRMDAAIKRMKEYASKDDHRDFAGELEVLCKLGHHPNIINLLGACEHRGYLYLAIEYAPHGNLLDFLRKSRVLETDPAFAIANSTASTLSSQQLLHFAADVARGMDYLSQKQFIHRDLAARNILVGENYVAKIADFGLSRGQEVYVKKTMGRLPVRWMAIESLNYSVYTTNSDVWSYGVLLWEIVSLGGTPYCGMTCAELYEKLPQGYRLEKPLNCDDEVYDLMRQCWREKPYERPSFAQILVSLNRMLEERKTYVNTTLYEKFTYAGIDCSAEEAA
Chain of SNARK (Q9H093 whole entry): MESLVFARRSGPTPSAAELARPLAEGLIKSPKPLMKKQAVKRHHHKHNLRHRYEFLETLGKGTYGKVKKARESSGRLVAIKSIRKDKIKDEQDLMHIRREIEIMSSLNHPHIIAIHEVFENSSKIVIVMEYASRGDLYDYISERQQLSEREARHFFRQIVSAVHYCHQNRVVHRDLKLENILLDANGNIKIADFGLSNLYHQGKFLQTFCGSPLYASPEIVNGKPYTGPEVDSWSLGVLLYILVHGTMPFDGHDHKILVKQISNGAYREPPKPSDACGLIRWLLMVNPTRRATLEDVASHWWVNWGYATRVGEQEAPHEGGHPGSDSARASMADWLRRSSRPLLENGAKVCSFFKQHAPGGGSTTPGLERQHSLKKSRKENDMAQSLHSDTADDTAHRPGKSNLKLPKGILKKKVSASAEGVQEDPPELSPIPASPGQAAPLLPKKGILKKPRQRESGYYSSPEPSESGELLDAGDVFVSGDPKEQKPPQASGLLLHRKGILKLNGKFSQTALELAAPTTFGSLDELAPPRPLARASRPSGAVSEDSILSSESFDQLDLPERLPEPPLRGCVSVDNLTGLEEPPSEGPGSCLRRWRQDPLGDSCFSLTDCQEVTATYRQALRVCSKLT
Chain of JNK2 (P45984 whole entry): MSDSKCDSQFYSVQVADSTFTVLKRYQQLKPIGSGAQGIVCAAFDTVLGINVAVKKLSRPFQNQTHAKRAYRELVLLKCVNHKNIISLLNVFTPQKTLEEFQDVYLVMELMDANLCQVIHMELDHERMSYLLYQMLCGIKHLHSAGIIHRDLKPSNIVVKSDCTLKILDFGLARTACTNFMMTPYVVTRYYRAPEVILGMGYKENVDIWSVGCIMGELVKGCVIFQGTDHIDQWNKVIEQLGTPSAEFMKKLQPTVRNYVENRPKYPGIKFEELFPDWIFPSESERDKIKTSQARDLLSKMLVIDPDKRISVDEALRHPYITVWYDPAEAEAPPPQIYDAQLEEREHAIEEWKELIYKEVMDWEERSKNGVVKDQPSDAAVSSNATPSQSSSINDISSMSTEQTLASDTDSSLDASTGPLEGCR

With `C=C1CCCCCCCCCC(CO)C1=O` (stereo not drawn) [EP009, 2-(Hydroxymethyl)-12-methylenecyclododecanone] the “stability in mouse plasma” value [1] was “stable and readily detected”, the “Kinase Activity (% of Control)” value [2] was 64 % of Control and the “inhibition of Aurora kinase A (AURKA)” value (AURKA) was 45 % inhibition. For the same compound, the “Kinase Activity (% of Control)” value (AURKA; AURKA) was 55 % of Control, the “Kinase Activity (% of Control)” value (DYRK1B) was 100 % of Control and the “Kinase Activity (% of Control)” value (ERBB2) was 100 % of Control. For the same compound, the “Kinase Activity (% of Control)” value (FGFR2) was 100 % of Control, the “Kinase Activity (% of Control)” value (IGF1R) was 100 % of Control and the “Kinase Activity (% of Control)” value (JNK2) was 100 % of Control. For the same compound, the “Kinase Activity (% of Control)” value (MEK1) was 71 % of Control, the “Kinase Activity (% of Control)” value (MKNK1) was 100 % of Control and the “Kinase Activity (% of Control)” value (MLK1) was 100 % of Control. For the same compound, the “Kinase Activity (% of Control)” value (PAK2) was 100 % of Control, the “Kinase Activity (% of Control)” value (PIK3C2B) was 70 % of Control and the “inhibition of Polo-like kinase 4 (PLK4)” value (PLK4) was 47 % inhibition. The “Kinase Activity (% of Control)” value (PLK4; PLK4) was 53 % of Control, the “Kinase Activity (% of Control)” value (SNARK) was 82 % of Control and the “Kinase Activity (% of Control)” value (TIE2) was 90 % of Control.
